According to patent publication US20060100263A1, “Antipyretic compositions and methods” (priority 2004, published 2006):
Counter-ions that a name gives are not always drawn. Marks after values point to notes of the source that are not given here.

Experiments:
[1] = yeast-induced pyresis model in rats; type: in vivo, rat
Method: (§1) Groups of 6 rats were injected subcutaneously with saline solution or 40% brewers' yeast 18 hours prior to oral administration of bicifadine HCl or aspirin. The yeast was suspended in 0.85% saline and doses in a volume of 10 ml/kg. Rectal temperatures were recorded with a YSI 43TA telethermometer just prior to oral drug administration, and hourly for 3-4 hours. The post-treatment temperatures were compared to the initial temperatures of each group. Control animals were treated with vehicle and tested concurrently. In FIG. 1, the solid line represents the mean rectal temperature of normal rats (99.5° F.) and the standard error of that measure (0.1° F.) is indicated by the dashed lines.
(§2) The results shown in FIG. 1 indicate that rats treated with brewers' yeast 18 hours prior to drug administration develop a febrile response, manifested as a mean rectal temperature of 101.1° F. In contrast, normal rats treated only with vehicle have a rectal temperature of 99.5° F., 1.6° F. lower than the yeast-treated rats.

α1 adrenergic receptor = experiment: [3H]prazosin binding, rat cerebral cortex preparation
Method: At the end of 60 min, the assay was terminated by vacuum filtration and the amount of radioactivity deposited on the filter measured by scintillation counting.

α2 adrenergic receptor = α2 adrenergic receptor binding
[2] = average body temperature of normal rats; type: in vivo, rat; details: for Mean Rectal Temperature at Indicated Hours Post-Treatment: 100 mg/kg PO
Method: as §1, §2

[3] = blood pressure in human subjects; type: in vivo
[4] = molecular target: recombinant human cyclooxygenase1 (COX1) (Homo sapiens, UniProt P23219); experiment: COX1 PGE2 synthesis assay; details: 0.1, 1, or 10 μM
Method: The assay mixture was incubated (10 min at 25° C. for COX1, 5 min-at 22° C. for COX2), then stopped and the amount of reaction product (PGE2) formed was measured by an enzyme-linked immunosorbent assay.

[5] = oral temperature of normal human subjects; type: in vivo; details: 600 mg PO single dose; for Oral Temperature at Indicated Times of Treatment: normal humans
Method: Normal humans received either a placebo or 600 mg of bicifadine HCl (PO). Oral temperature readings were taken as part of an assessment of vital signs before and after administration of a single dose.
Oral temperature readings were taken as part of an assessment of vital signs before and after administration of a single dose of bicifadine to normal humans. The placebo group consisted of 150 subjects, while the bicifadine HCl group consisted of 151 individuals.

[6] = molecular target: T1, recombinant human cyclooxygenase2 (COX2) (Homo sapiens, UniProt P35354); experiment: COX2 PGE2 synthesis assay; details: 0.1, 1, or 10 μM
T1 sequence (P35354 18-604): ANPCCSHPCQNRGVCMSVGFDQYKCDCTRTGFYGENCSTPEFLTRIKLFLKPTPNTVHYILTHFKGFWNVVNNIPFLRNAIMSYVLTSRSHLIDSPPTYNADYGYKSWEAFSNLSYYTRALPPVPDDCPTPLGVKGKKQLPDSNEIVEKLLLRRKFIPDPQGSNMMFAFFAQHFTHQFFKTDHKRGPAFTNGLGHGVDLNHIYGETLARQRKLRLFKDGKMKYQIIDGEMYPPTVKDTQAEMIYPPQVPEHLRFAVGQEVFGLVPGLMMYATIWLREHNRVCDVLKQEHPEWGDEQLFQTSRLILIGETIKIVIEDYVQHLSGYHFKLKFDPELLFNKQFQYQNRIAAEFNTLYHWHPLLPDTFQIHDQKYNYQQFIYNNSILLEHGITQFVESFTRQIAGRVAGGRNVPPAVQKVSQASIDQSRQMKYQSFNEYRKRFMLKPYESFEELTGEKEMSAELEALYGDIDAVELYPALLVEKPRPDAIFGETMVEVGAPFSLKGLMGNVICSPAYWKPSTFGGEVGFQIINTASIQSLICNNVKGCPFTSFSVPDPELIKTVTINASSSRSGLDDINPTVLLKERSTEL
Method: This was determined in assays using the rate limiting enzyme for prostaglandin synthesis, recombinant human cyclooxygenasel (COX1) and cyclooxygenase2 (COX2) expressed in Sf9 cells using a modified technique of Glaser et al (1995). These cells were incubated with arachidonic acid as the substrate (4, and 2 μM, respectively) and 0.1, 1, or 10 μM concentrations of bicifadine HCl in a suitable assay buffer. The assay mixture was incubated (10 min at 25° C. for COX1, 5 min-at 22° C. for COX2), then stopped and the amount of reaction product (PGE2) formed was measured by an enzyme-linked immunosorbent assay.

[7] = molecular target: 5-HT2A serotonin receptor (Homo sapiens, UniProt P28223); experiment: radioligand binding to 5-HT2A serotonin receptor
5-HT2A serotonin receptor, sequence (P28223 whole entry): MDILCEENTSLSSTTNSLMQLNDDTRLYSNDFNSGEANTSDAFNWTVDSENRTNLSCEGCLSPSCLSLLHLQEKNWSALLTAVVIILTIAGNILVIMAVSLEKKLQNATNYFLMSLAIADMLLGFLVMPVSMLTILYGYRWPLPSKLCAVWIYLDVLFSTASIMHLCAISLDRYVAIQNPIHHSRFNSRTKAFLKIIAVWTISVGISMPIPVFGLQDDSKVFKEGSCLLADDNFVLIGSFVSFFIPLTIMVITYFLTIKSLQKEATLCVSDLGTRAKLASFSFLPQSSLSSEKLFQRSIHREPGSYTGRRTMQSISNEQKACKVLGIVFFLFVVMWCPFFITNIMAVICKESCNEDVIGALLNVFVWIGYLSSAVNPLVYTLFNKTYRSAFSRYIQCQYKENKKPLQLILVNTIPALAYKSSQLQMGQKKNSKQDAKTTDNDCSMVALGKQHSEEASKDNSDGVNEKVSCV

recombinant human cyclooxygenase1 (COX1), sequence (P23219 24-599): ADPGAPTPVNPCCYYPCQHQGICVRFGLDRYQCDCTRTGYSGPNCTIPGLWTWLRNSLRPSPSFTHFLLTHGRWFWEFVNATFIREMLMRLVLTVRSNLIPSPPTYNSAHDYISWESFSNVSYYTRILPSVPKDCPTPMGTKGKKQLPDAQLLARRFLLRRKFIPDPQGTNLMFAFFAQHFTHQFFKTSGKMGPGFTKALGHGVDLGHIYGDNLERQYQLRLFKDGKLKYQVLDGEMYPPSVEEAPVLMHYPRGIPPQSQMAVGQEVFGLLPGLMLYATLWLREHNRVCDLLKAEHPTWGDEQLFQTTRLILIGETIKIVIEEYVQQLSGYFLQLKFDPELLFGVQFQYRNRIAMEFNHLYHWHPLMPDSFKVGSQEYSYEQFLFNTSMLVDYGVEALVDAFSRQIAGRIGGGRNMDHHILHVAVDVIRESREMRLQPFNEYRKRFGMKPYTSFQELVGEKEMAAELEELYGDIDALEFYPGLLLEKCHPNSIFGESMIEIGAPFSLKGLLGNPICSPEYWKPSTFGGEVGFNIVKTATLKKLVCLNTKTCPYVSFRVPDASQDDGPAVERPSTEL

Cc1ccc([C@]23CNC[C@H]2C3)cc1 (racemic) [Bicifadine HCl, (±)-1-(4-methylphenyl)-3-azabicyclo[3.1.0]hexane hydrochloride]
rectal temperature of yeast-fevered rats ([1]; 50 mg/kg PO, by the first hour after administration, vs pre-treatment temperature): significantly reduced rectal temperature
duration of antipyretic effect ([1]; 100 mg/kg PO): 4 h
rectal temperature of yeast-fevered rats ([1]; 100 mg/kg PO, normal rat temperature 99.5 °F): decrease rectal temperature to levels at or below normal
antipyretic potency compared with aspirin ([1]; aspirin 200 mg/kg PO): more potent antipyretic than aspirin
occupying binding sites on α1 adrenergic receptor (α1 adrenergic receptor): capable of occupying binding sites
Ki (α1 adrenergic receptor; 0.25 nM [3H]prazosin, 60 min at 22° C.): 1000 nM
occupying binding sites on α2 adrenergic receptor (α2 adrenergic receptor): capable of occupying binding sites
effect on rectal temperature of normal rats (hypothermia) [2]: did not consistently lower the rectal temperature of normal rats
Mean Rectal Temperature at Indicated Hours Post-Treatment ([2]; 0 h): 98.9 ° F.
Mean Rectal Temperature at Indicated Hours Post-Treatment ([2]; 1 h): 97.9* ° F.
Mean Rectal Temperature at Indicated Hours Post-Treatment ([2]; 2 h): 98.3 ° F.
Mean Rectal Temperature at Indicated Hours Post-Treatment ([2]; 3 h): 98.2 ° F.
Mean Rectal Temperature at Indicated Hours Post-Treatment ([2]; 4 h): 97.5 ° F.
alterations in blood pressure [3]: did not cause significant alterations in blood pressure
inhibitory effect on PGE2 synthesis by COX1 [4]: no significant inhibitory effect
effect on normal human oral temperature (hypothermia) [5]: did not consistently lower normal human oral temperature
Oral Temperature at Indicated Times of Treatment ([5]; 0.5 hr): 98.1 ° F.
Oral Temperature at Indicated Times of Treatment ([5]; 1 hr): 98.1 ° F.
Oral Temperature at Indicated Times of Treatment ([5]; 2 hr): 98.1 ° F.
Oral Temperature at Indicated Times of Treatment ([5]; 3 hr): 98.0 ° F.
Oral Temperature at Indicated Times of Treatment ([5]; 4 hr): 98.1 ° F.
Oral Temperature at Indicated Times of Treatment ([5]; 5 hr): 98.2 ° F.
Oral Temperature at Indicated Times of Treatment ([5]; 6 hr): 98.2 ° F.
Oral Temperature at Indicated Times of Treatment ([5]; Follow-up): 97.8 ° F.
Oral Temperature at Indicated Times of Treatment ([5]; Pre-Dose): 98.1 ° F.
inhibitory effect on PGE2 synthesis by COX2 [6]: no significant inhibitory effect
inhibition of radioligand binding to 5-HT2A serotonin receptor [7]: significantly inhibited radioligand binding
